According to patent US10383869B2, “Treatment with opioid antagonists and mTOR inhibitors” (THE UNIVERSITY OF CHICAGO, priority 2008, dated 2019):
Values joined by “and” are separate entries in the source; they are usually repeats but may differ in a detail not shown here. Equal entries are not always repeated. Where two headings read alike, the source gives them in different places.

Columns and labels:
[1] = tested on: human pulmonary microvascular endothelial cells (HPMVEC); experiment: Human pulmonary microvascular EC proliferation assay (VEGF-induced); assay type: cell-based
Procedure: Human pulmonary microvascular EC proliferation assay—For measuring cell growth, HPMVEC [5×10^3 cells/well] pretreated with various agents were incubated with 0.2 ml of serum-free media containing 100 nM VEGF for 24 h at 37° C. in 5% CO2195% air in 96-well culture plates. The in vitro cell proliferation assay was analyzed by measuring increases in cell number using the CellTiter96™ MTS assay (Promega, San Luis Obispo, Calif.) and read at 492 nm. Each assay was set up in triplicate, repeated at least five times and analyzed statistically by Student's t test (with statistical significance set at P<0.05).
(§1) Experiments were performed in triplicate. Error bars=standard deviation.
as §1

[2] = tested on: human pulmonary microvascular endothelial cells (HPMVEC); experiment: Human pulmonary microvascular EC migration assay (VEGF-induced, transwell); assay type: cell-based; conditions: VEGF 100 nM
Procedure: Human pulmonary microvascular EC migration assay—Twenty-four transwell units with […] pore size were used for monitoring in vitro cell migration. HPMVEC (˜1×10^4 cells/well) were plated with various treatments to the upper chamber and VEGF (100 nM) was added to the lower chamber. Cells were allowed to migrate for 18 hours. Cells from the upper and lower chamber were quantitated using the CellTiter96™ MTS assay (Promega, San Luis Obispo, Calif.) and read at 492 nm. Percent migration was defined as the # of cells in the lower chamber divided by the number of cells in both the upper and lower chamber. Each assay was set up in triplicate, repeated at least five times and analyzed statistically by Student's t test (with statistical significance set at P<0.05).
Synergistic effects of MNTX with Temsirolimus on inhibition of VEGF—induced human EC proliferation and migration. Inhibition curves of human EC assayed for VEGF (100 nM)-induced proliferation and migration (24 hours) in the presence or absence of 0.1, 1.0, 10, 100 or 500 nM MNTX, Temsirolimus or 10 nM MNTX+Temsirolimus. MNTX inhibited EC VEGF-induced proliferation with an IC50 of ˜100 nM. Adding 10 nM MNTX to EC shifted the IC50 of Temsirolimus inhibition of VEGF-induced proliferation from ˜10 nM to ˜1 nM. Experiments were performed in triplicate. Error bars=standard deviation. […]

[3] = tested on: T1, mTOR Complex 1 (Homo sapiens); experiment: VEGF-induced mTOR complex formation, anti-Raptor immunoprecipitation and immunoblot; assay type: cell-based; conditions: human EC, VEGF 100 nM 5 minutes, 1 hour pretreatment with 100 nM compound
T1 construct: EC lysates were obtained and immunoprecipitated with anti-Raptor (mTOR Complex 1 component); endogenous in cells; host or cells: human endothelial cells (EC)
Procedure: (§2) Analysis of mTOR Complex Formation and Regulation of Akt Phosphorylation—Human EC were serum starved for one hour and either untreated (control) or treated with VEGF (100 nM, 5 minutes) with or without pretreatment (1 hour) with 100 nM MNTX or 100 nM Temsirolimus. EC lysates were obtained and immunoprecipitated with anti-Raptor (mTOR Complex 1 component) or anti-Rictor (mTOR complex 2 component) antibody. The immunoprecipitated material was run on SDS-PAGE and immunoblotted with either anti-mTOR, anti-FKBP12, anti-Raptor, anti-SIN1 or anti-Rictor antibody. To investigate the regulation of Akt phosphorylation, human EC were serum starved for one hour and either untreated (control) or treated with VEGF (100 nM, 5 minutes) with or without pretreatment with the PI3 kinase inhibitor, LY294002 (10 μM, 1 hour), Src siRNA or Rictor (mTOR complex 2 component) siRNA. EC lysates were obtained, run on SDS-PAGE and immunoblotted with anti-pSer^473Akt, anti-pThr^308Akt or anti-Akt antibody.

[4] = tested on: mTOR Complex 2; experiment: VEGF-induced mTOR complex formation, anti-Rictor immunoprecipitation and immunoblot; assay type: cell-based; conditions: human EC, VEGF 100 nM 5 minutes, 1 hour pretreatment with 100 nM compound
Procedure: as §2

[5] = tested on: Akt; experiment: VEGF-induced Akt activation (phosphorylation) immunoblot in human pulmonary microvascular endothelial cells; assay type: cell-based; conditions: for VEGF-induced phosphorylation (activation) of Akt at serine 473 and threonine 308: human EC, VEGF 100 nM 5 minutes, 1 hour pre-treatment with 100 nM compound
Procedure: To assess the effects of methylnaltrexone (MNTX) on the VEGF-induced activation of the serine/threonine kinase Akt, a well-characterized endothelial cell line, human pulmonary microvascular endothelial cells (HPMVEC), was used. HPMVEC were serum starved for one hour and either untreated (control) or treated with VEGF (100 nM, 5 minutes) with or without pre-treatment (1 hour) with 100 nM MNTX, 100 ng/ml bevacizumab, 100 μM 5-FU, 100 nM MNTX+100 ng/ml bevacizumab or 100 nM MNTX+100 μM 5-FU. Cell lysates were obtained, run on SDS-PAGE and immunoblotted with anti-pSer^473Akt, anti-pThr^308Akt, anti-Akt or anti-actin antibody.
Cell Culture and Reagents—Human pulmonary microvascular EC were obtained from Cambrex (Walkersville, Md.) and cultured as previously described (Singleton et al. (2006), Microvasc. Res. 72(1-2):3-11; Singleton et al. (2007), Am. J. Respir. Cell Mol. Biol. 37(2):222-231) in EBM-2 complete medium (Cambrex) at 37° C. in a humidified atmosphere of 5% CO2, 95% air, with passages 6-10 used for experimentation. Unless otherwise specified, reagents were obtained from Sigma (St. Louis, Mo.). Vascular endothelial growth factor (VEGF) was purchased from R&D Systems (Minneapolis, Minn.). Methylnaltrexone bromide (MNTX) was purchased from Mallinckrodt Specialty Chemicals (Phillipsburg, N.J.). Bevacizumab was purchased from Genentech (South San Francisco, Calif.). 5-fluorouracil (5-FU) was purchased from Abraxis Pharmaceutical Products (Schaumburg, Ill.). Naltrexone and rapamycin were purchased from Sigma (St. Louis, Mo.). Reagents for SDS-PAGE electrophoresis were purchased from Bio-Rad (Richmond, Calif.) and Immobilon-P transfer membrane was purchased from Millipore (Millipore Corp., Bedford, Mass.). Rabbit anti-pSer^473Akt, rabbit anti-pThr^308Akt and rabbit anti-Akt antibodies were purchased from Cell Signaling Technologies (Danvers, Mass.). Mouse anti-β-actin antibody was purchased from Sigma (St. Louis, Mo.). Secondary horseradish peroxidase (HRP)-labeled antibodies were purchased from Amersham Biosciences (Piscataway, N.J.). […]

[6] = white crystalline powder, typically the bromide salt, as commercially provided; cited from earlier work

## CN(N=O)c1ccc(O)c(O)c1 [3,4-dephostatin]
[1]; VEGF 100 nM, 24 hours, with Temsirolimus with or without 10 nM MNTX
  effect of PTP inhibitor on VEGF-induced EC proliferation: inhibited
[2]; 24 hours, with Temsirolimus with or without 10 nM MNTX
  effect of PTP inhibitor on VEGF-induced EC migration: inhibited

## C[N@+]1(CC2CC2)CC[C@]23c4c5ccc(O)c4O[C@H]2C(=O)CC[C@@]3(O)[C@H]1C5 [methylnaltrexone, N-methylnaltrexone]
[3]
  VEGF-induced formation of mTOR Complex I: inhibits
[1]; Homo sapiens, Endothelial cell, 24 h, read-out: IC50 of inhibition of VEGF-induced EC proliferation
  IC50: ~0.1 µM
[4]
  VEGF-induced formation of mTOR Complex II: inhibits
[5]; 1.0, 10, 100, 1000 nM MNTX
  inhibition of VEGF-induced pSer473Akt and pThr308Akt immunoreactivity, dose relation: dose-dependent
[5]
  VEGF-induced phosphorylation (activation) of Akt at serine 473 and threonine 308: abrogated
[6]
  solubility in water: freely soluble in water

## CO[C@H]1C[C@@H]2CC[C@@H](C)[C@@](O)(O2)C(=O)C(=O)N2CCCC[C@H]2C(=O)O[C@H]([C@H](C)C[C@@H]2CC[C@@H](OC(=O)C(C)(CO)CO)[C@H](OC)C2)CC(=O)[C@H](C)/C=C(\C)[C@@H](O)[C@@H](OC)C(=O)[C@H](C)C[C@H](C)/C=C/C=C/C=C/1C [temsirolimus]
[3]
  VEGF-induced formation of mTOR Complex I: mTOR complex II only
[1]; VEGF 100 nM, 24 hours, compound alone, read-out: IC50 of inhibition of VEGF-induced EC proliferation
  IC50: ~0.01 µM and 0.01 µM
[1]; VEGF 100 nM, 24 hours, plus 10 nM MNTX, read-out: IC50 of inhibition of VEGF-induced EC proliferation with 10 nM MNTX added
  IC50: ~0.001 µM
[1]; VEGF 100 nM, 24 hours, presence of 3,4-Dephostatin, read-out: IC50 of inhibition of VEGF-induced EC proliferation in the presence of 3,4-Dephostatin
  IC50: 0.015 µM
[4]
  VEGF-induced formation of mTOR Complex II: inhibits
[5]
  VEGF-induced phosphorylation (activation) of Akt at serine 473 and threonine 308: did not inhibit

## rapamycin
[1]; VEGF 100 nM, 0.01, 0.1, 1.0 or 10 nM rapamycin
  inhibition of VEGF-induced endothelial cell proliferation: dose-dependent inhibition
[2]; 0.01, 0.1, 1.0 or 10 nM rapamycin
  inhibition of VEGF-induced endothelial cell migration: dose-dependent inhibition
